The values below come from US20260345572A1, “PHARMACEUTICAL FORMULATIONS WITH ACTIVITY INHIBITING HISTONE METHYLTRANSFERASES FOR THE TREATMENT OF NEOPLASTIC DISEASES” (Ente Ospedaliero Specializzato in Gastroenterologia …, priority 2022, published 2026).

The test system of experiment [1] is HCT116 cells. The experiment is described as follows: Cell viability (WST-1). The experiment is classed as cell-based, human. The settings on record: FIG. 5. The method, then:
(§1) The human cell lines HT29, HCT116, SW480, MDA-MB-231, MDA-MB-468, HGC-27, and PANC1 were cultured in DMEM culture medium, supplemented with 10% fetal bovine serum (FBS); N87, AGS and KATO III were cultured in RPMI culture medium supplemented with 10% FBS; CACO2 were cultured in DMEM culture medium, supplemented with 20% FBS and nonessential amino acids. All cell lines were cultured in the presence of 1% antibiotics (Penicillin and Streptomycin), at 37 °C in an atmosphere of 5% CO2 and always maintained in a subconfluence state.
(§2) Cell viability analysis was performed by using WST-1 kit (Roche), allowing to measure viable cell metabolic activity. In short, the quantitation of mitochondrial dehydrogenase activity is assessed by soluble tetrazolium salt ([…], colorless) conversion into its corresponding product, formazane (colored). The quantitative assessment of salt conversion into its colored form is then performed by spectrophotometrically calculating absorption at 450 nm. Substrate conversion levels are therefore proportional to enzymatic activity which, in turn, represents a marker of cell viability and proliferation.
For orientation: Formazan colour is commonly taken as a measure of viable cells.

Experiment [2] concerns HT29 cells. The experiment is described as follows: Cell viability (WST-1). Format: cell-based, human. To be noted: FIG. 5. The method, then:
as §1, §2

The subject of experiment [3] is HR-deficient cell lines. The settings on record: previously described; cited from earlier work.
Experiment [4] concerns AOM/DSS murine model of colorectal cancer. The experiment is described as follows: AOM/DSS murine model of colorectal cancer. The experiment is classed as in vivo, C57BL/6 mice. To be noted: FIG. 8; EM127 20 mg/kg + Irinotecan 20 mg/kg, intraperitoneally, 14 days; vs Irinotecan alone. How it is done:
C57BL/6 mice were treated intraperitoneally with 12 mg/kg azoxymethane (AOM). Dextran sulfate sodium (DSS) was then administered, at 2% in water for five days, followed by two weeks with water only. This cycle was repeated thrice. At +10 days from the last DSS administration, the Inventors proceeded with the treatment with 20 mg/kg EM127 and/or 20 mg/kg Irinotecan, or with the carrier alone, intraperitoneally, for a total of 14 days.

Experiment [5] deals with colorectal cancer stem cells. The experiment is described as follows: Clonogenic assay. Format: cell-based, human. The settings on record: FIG. 3C; EM127 + Oxaliplatin, 5-Fluorouracil or Irinotecan 10 μM. The text has this:
(§3) In compliance with Art 170bis, Paragraph 3 C.P.I., it is hereby certified that: • The colorectal cancer stem cells used at the base of the invention object of the present application have been isolated from patients, and the aforementioned cells were obtained following the free and informed consent to their collection and use expressed by the person from whom said material has been collected, under the regulations in force; and • C57BL/6 mice for the AOM/DSS murine model of colorectal cancer were not genetically modified.
For the clonogenic assay, previously dissociated colorectal cancer tumorspheres were plated in triplicate using 500 cells per experimental point and resuspended in 0.3% agarose on a 0.5% agarose layer. Subsequently, they were treated with EM127 and chemotherapeutic compounds.

The subject of experiment [6] is AGS gastric cancer cells. The experiment is described as follows: Synergistic effect, nonviable/apoptotic cell population. The experiment is classed as cell-based, human. The settings on record: FIG. 9, >1 = synergistic. The method, then: (§4) Analysis of non-viable cell percentage was carried out by counting live cells and dead cells after staining with 0.01% Trypan Blue, a dye permeating cells only in the condition in which plasma membrane integrity is compromised. In short, after collecting the culture medium and the plate-adhering cells, detached by enzymatic treatment with 1% trypsin/EDTA, the pellet obtained by centrifuging was resuspended in an adequate volume of DPBS and 10 μl of cell suspension were diluted in an equal volume of Trypan blue. The counting was performed with a phase-contrast optical microscope, using a Burker chamber.
(§5) Analysis of the percentage of cells undergoing programmed death, referred to as apoptosis, was performed by Annexin V assay. The concentrations of live cells, cells in early apoptosis, in total apoptosis and dead cells were measured with Muse Annexin V and Dead Cell Reagent kit (Luminex). 5×10^4 cells/mL were stained with the reagent provided by the kit. After 20 min incubation, fluorescence is read with Guava® Muse® Cell Analyzer. The test was performed on the following cell lines: HCT116, PANC1, SW480, MDA-MB-231, MCF7, AGS.

Experiment [7] concerns MCF7 breast cancer cells. The description is as above. The experiment is classed as cell-based, human. The settings on record: FIG. 9, >1 = synergistic. How it is done:
as §4, §5

The test system of experiment [8] is MDA-MB-231 breast cancer cells. The description is as above. The experiment is classed as cell-based, human. To be noted: FIG. 9, >1 = synergistic. The method, then:
as §4, §5

Experiment [9] relates to colorectal cancer stem cells. Description: Cancer stem cell viability. Format: cell-based, human. The settings on record: FIG. 3A; EM127 + Oxaliplatin, 5-Fluorouracil or Irinotecan 10 μM.
Source text: as §3, §2

Experiment [10] relates to HCT116-derived tumor spheroids. Description: LIVE/DEAD viability of tumorspheres. Format: cell-based, human. To be noted: FIG. 2; EM127 + Oxaliplatin or Irinotecan 10 μM. How it is done:
The tumorspheres deriving from the continuous cell line HCT116 “HCT116-derived tumor spheroids” were obtained by using a suitable DMEM/F12 Advanced culture medium supplemented with 1× Glutamine, 1× Penicillin/streptomycin, 0.6% glucose, 1×B27, 1×N2, 20 ng/ml EGF, 10 ng/ml bFGF, and cultured in media surface-treated to ensure a very low cell adhesion.
To assess cell viability on HCT116-derived tumorspheres, LIVE/DEAD® Viability/Cytotoxicity Assay kit (Thermo Fisher) was used, allowing to discriminate live cells from dead ones with two probes measuring intracellular enzymatic activity and plasma membrane integrity. Tumorspheres were incubated with the reagent provided by the kit and then visualized with a fluorescence microscope. Live cells are stained with reagent calcein and generate a green fluorescence signal; dead cells are stained with ethidium homodimer, generating a red signal.

Experiment [11] deals with colorectal cancer stem cells. Description: Migration assay (Boyden chamber). Format: cell-based, human. To be noted: FIG. 3B; EM127 + Oxaliplatin, 5-Fluorouracil or Irinotecan 10 μM.
Source text: as §3
To assess cell motility, colorectal cancer tumorspheres were suspended in 200 μl non-supplemented stem cell culture medium and plated in the top section of a Boyden culture chamber, which is separated from the bottom part by a polycarbonate membrane allowing cells to migrate. The underlying section contains 600 μl of stem cell medium supplemented with 20 ng/ml EGF and 10 ng/ml basic FGF and chemotherapeutic compounds.

For experiment [12], the system named is PANC1, SW80, AGS, N87, HGC-27 cells. Description: Cell death and viability, FIG. 6 panel of cell lines. The experiment is classed as cell-based, human. To be noted: 72 h. The method, then:
as §1
Cell viability analysis was performed by using WST-1 kit (Roche), allowing to measure viable cell metabolic activity. In short, the quantitation of mitochondrial dehydrogenase activity is assessed by soluble tetrazolium salt ([…], colorless) conversion into its corresponding product, formazane (colored). The quantitative assessment of salt conversion into its colored form is then performed by spectrophotometrically calculating absorption at 450 nm. […]
Analysis of the percentage of cells undergoing programmed death, referred to as apoptosis, was performed by Annexin V assay. The concentrations of live cells, cells in early apoptosis, in total apoptosis and dead cells were measured with Muse Annexin V and Dead Cell Reagent kit (Luminex). […] After 20 min incubation, fluorescence is read with Guava® Muse® Cell Analyzer. […]

The test system of experiment [13] is HCT116 cells. Description: Apoptotic cell percentage (Annexin V). Format: cell-based, human. The settings on record: FIG. 1B; EM127 + chemotherapeutic compound (Oxaliplatin, 5-Fluorouracil or Irinotecan, 10 μM). How it is done:
as §1, §5

Experiment [14] concerns MDA-MB-468 cells. The experiment is described as follows: Cell viability (WST-1). The experiment is classed as cell-based, human. The settings on record: FIG. 7; EM127 alone; low SMYD3 protein levels. The method, then: as §1, §2
Experiment [15] has as its system HGC-27 gastric cancer cells. Description: Cell viability (WST-1). Format: cell-based, human. How it is done: as §1, §2
Experiment [16] deals with PANC1 pancreatic cancer cells. The experiment is described as follows: Cell viability (WST-1). The experiment is classed as cell-based, human. The method, then: as §1, §2
In experiment [17] the test system is N87 gastric cancer cells. The experiment is described as follows: Cell viability (WST-1). Format: cell-based, human. How it is done:
as §1, §2

The test system of experiment [18] is AGS gastric cancer cells. Description: Cell viability (WST-1). The experiment is classed as cell-based, human. How it is done: as §1, §2
The test system of experiment [19] is KATO III cells. The experiment is described as follows: Cell viability (WST-1). Format: cell-based, human. The settings on record: FIG. 7; EM127 alone; low SMYD3 protein levels. The method, then: as §1, §2
Experiment [20] has as its system Caco2 colorectal cancer cells. The experiment is described as follows: Cell viability (WST-1). The experiment is classed as cell-based, human. To be noted: FIG. 1A; EM127 72 h + Oxaliplatin, 5-Fluorouracil or Irinotecan 10 μM for the last 24 h; vs chemotherapeutic compound alone. How it is done: as §1, §2
The test system of experiment [21] is MDA-MB-231 breast cancer cells. Description: Cell viability (WST-1). The experiment is classed as cell-based, human. To be noted: FIG. 4; EM127 + chemotherapeutic compounds (Paclitaxel 10 μM, Oxaliplatin 10 μM, Doxorubicin 1 μM). How it is done: as §1, §2
Experiment [22] relates to SW480 colorectal cancer cells. The experiment is described as follows: Cell viability (WST-1). The experiment is classed as cell-based, human. The method, then:
as §1, §2

[23] abbreviates: single-compound treatment, 72 h, increasing concentrations.
Where [24] appears, read: EM127 72 h + 5-Fluorouracil 10 μM last 24 h.
[25] abbreviates: EM127 72 h + Irinotecan 10 μM last 24 h.
Setting [26] is: EM127 72 h + Oxaliplatin 10 μM last 24 h.
[27] abbreviates: FIG. 4, EM127 + chemotherapeutic compounds (Paclitaxel 10 μM, Oxaliplatin 10 μM, Doxorubicin 1 μM).
Setting [28] is: FIG. 6C, EM127 + Olaparib 10 μM, 72 h, vs single compound.

As to `O=c1[nH]cc(F)c(=O)[nH]1` [5-Fluorouracil, reference compound], the “reduction of cell viability” value in experiment [1] (setting [23]) and in [2] (setting [23]) was “about 50%” in each case.
Consider `CCc1c2c(nc3ccc(OC(=O)N4CCC(N5CCCCC5)CC4)cc13)-c1cc3c(c(=O)n1C2)COC(=O)[C@]3(O)CC` [Irinotecan, reference compound], for which the “reduction of cell viability” value in experiment [1] (setting [23]) and in [2] (setting [23]) was “about 50%” throughout.
For `O=C(c1cc(Cc2n[nH]c(=O)c3ccccc23)ccc1F)N1CCN(C(=O)C2CC2)CC1` [Olaparib], in [3], the “sensitivity to treatment with Olaparib alone” value is “sensitive”.
As to `N[C@@H]1CCCC[C@H]1N.[Pt+2]` [Oxaliplatin, reference compound], the “reduction of cell viability” value in experiment [1] (setting [23]) and in [2] (setting [23]) was “about 50%” each time.
Regarding `O=C(NC1CCN(C(=O)CCl)CC1)c1cc(C2CC2)on1` [EM127], in experiment [4], the “number of tumors at the level of the colon” value is “reduces the number of tumors”. The “ability to form colonies” value in experiment [5] is given as “synergistic effect”. Further, the synergistic effect entry in experiment [6] (EM127 + Doxorubicin), in experiment [6] (EM127 + Paclitaxel), in [7] (EM127 + Doxorubicin), in experiment [7] (EM127 + Paclitaxel), in experiment [8] (EM127 + Doxorubicin) and in [8] (EM127 + Paclitaxel) was “higher than 1” in each case. Besides, the cell viability result in experiment [9] was “synergistic effect”; in experiment [14], “absence of effect”; in [15] (setting [27]), “synergistic effect”; in experiment [15] (setting [28]), “reduction of cell viability”; in experiment [15] (FIG. 10, EM127 + Rucaparib) it was “synergistic effect”; in experiment [16] (setting [28]) it was “reduction of cell viability”. Further, the cell viability result is “synergistic effect” in [16] (FIG. 10, EM127 + Rucaparib); “synergistic effect” in [17] (setting [27]); “reduction of cell viability” in [17] (setting [28]); “synergistic effect” in [17] (FIG. 10, EM127 + Rucaparib); “reduction of cell viability” in experiment [18] (setting [28]); “synergistic effect” in experiment [18] (FIG. 10, EM127 + Rucaparib). Moreover, the cell viability entry in experiment [19] is recorded as “absence of effect”; in experiment [20] it was “reduces cell viability with a greater effect”; in experiment [21], “synergistic effect”; in [22] (FIG. 1A, EM127 72 h + Oxaliplatin, 5-Fluorouracil or Irinotecan 10 μM for the last 24 h, vs chemotherapeutic compound alone) it was “reduces cell viability with a greater effect”; in experiment [22] (FIG. 6C, EM127 + Olaparib 10 μM, 72 h, vs single compound, cell line printed SW80), “reduction of cell viability”; in [22] (FIG. 10, EM127 + Rucaparib), “synergistic effect”. Also, the “live and dead cells by immunofluorescence” value in experiment [10] is given as “synergy”. Further, in experiment [11], the ability to migrate entry is on record as “synergistic effect”. The cell death result in experiment [12] (FIG. 6A, B, EM127 + Olaparib 10 μM, vs single compound) was “increase of cell death”. The “cell viability by HR status” value in [12] (FIG. 6C, combined treatment EM127 + Olaparib 10 μM) is recorded as “reduction of cell viability only for HR-proficient cell lines”. Further, the “dead (apoptotic) cell percentage” value in experiment [13] is “increased”. In addition, the “reduction of cell viability” value in experiment [1] (setting [24]), in experiment [1] (setting [25]), in experiment [1] (setting [26]), in experiment [2] (setting [24]), in [2] (setting [25]) and in experiment [2] (setting [26]) was “about 50%” in each case.
